{"source": "patent US20010027175A1", "about": "“Use of certain drugs for treating nerve root injury” (priority 1998, published 2001)", "key": {"[1]": {"target": "inducible nitrogen oxide synthetase (Homo sapiens, UniProt P35228)", "sequence (P35228 whole entry)": "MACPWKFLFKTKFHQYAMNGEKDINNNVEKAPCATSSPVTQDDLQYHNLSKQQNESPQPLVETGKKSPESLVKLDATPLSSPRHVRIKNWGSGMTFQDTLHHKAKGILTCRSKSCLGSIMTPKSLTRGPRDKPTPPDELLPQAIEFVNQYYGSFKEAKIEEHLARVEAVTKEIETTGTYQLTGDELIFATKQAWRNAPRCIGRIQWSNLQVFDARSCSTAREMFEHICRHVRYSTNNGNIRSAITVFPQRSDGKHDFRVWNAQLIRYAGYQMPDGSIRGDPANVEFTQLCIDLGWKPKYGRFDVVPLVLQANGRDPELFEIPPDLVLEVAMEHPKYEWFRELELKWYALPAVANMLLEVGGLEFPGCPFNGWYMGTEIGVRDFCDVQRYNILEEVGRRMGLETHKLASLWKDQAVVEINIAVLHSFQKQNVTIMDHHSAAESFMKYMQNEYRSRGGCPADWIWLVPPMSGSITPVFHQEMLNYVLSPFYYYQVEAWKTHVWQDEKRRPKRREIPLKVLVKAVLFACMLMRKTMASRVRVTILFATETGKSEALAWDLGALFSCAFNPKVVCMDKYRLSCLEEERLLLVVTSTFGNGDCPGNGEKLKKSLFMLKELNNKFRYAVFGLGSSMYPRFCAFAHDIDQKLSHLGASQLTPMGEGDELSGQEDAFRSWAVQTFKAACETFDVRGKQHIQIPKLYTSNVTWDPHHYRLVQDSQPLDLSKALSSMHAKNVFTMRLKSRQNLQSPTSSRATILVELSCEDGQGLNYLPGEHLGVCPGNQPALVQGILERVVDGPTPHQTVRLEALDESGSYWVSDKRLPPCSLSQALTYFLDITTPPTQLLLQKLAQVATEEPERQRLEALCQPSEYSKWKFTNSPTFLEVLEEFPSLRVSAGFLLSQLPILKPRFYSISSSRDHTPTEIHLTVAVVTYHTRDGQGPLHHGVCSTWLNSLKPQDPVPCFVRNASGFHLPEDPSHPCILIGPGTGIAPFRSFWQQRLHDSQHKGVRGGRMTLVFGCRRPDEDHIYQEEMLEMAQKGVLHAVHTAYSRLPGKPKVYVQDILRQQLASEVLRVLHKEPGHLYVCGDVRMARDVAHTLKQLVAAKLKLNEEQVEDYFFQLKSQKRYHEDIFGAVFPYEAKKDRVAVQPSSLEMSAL", "conditions": "by inhibiting inducible nitrogen oxide synthetase; cited from earlier work"}, "[2]": {"system": "nucleus pulposus-induced reduction of nerve root conduction velocity (sacrococcygeal cauda equina)", "assay": "Series-2: nerve root conduction velocity three days after autologous nucleus pulposus application to the cauda equina", "type": "in vivo", "conditions": "pig, mean ± SD", "procedure": "Series-2: Nucleus pulposus was harvested from lumbar discs and applied to the sacrococcygeal cauda equina in 13 pigs autologously. […] Three days after the application the nerve root conduction velocity was determined over the application zone by local electrical stimulation.\nThirteen pigs, (body weight 25-30 kg) received an intramuscular injection of 20 mg/kg body weight of Ketala (ketamine 50 mg/ml, Parke-Davis, Morris Plains, N.J.) and an intravenous injection of 4 mg/kg body weight of Hypnodil^R (methomidate chloride 50 mg/ml, AB Leo, Helsingborg, Sweden) and 0.I mg/kg body weight of Stresnil^R (azaperon 2 mg/ml, Janssen Pharmaceutica, Beerse, Belgium). […]\nThree days after the application, the pigs were reanaesthetized by an intramuscular injection of 20 mg/kg body weight of Ketalar^R and an intravenous injection of 35 mg/kg body weight of Pentothal^R (Thiopental sodium, Abbott lab, Chicago, Ill.). […] Local tissue temperature was continuously monitored and maintained at 37.5-38.0° C. by means of a heating lamp. […]\nThe person performing the neurophysiologic analyses was unaware of the experimental protocol for the individual animal, and after finishing the complete study the data were arranged in the three experimental groups and statistical differences between the groups were assessed by Student's t-test. […]"}, "[3]": {"system": "nucleus pulposus-related effects on adjacent nerve roots", "conditions": "literature refs 38, 2, 3, 69; cited from earlier work"}, "[4]": {"system": "nucleus pulposus-induced reduction of nerve root conduction velocity (sacrococcygeal cauda equina)", "assay": "Series-3: nerve root conduction velocity seven days after autologous nucleus pulposus application to the cauda equina", "type": "in vivo", "conditions": "pig; for NCV (m/s ± SD): seven days after nucleus pulposus application, mean ± SD; for block of nucleus pulposus induced nerve injury (in words): seven days, systemic treatment", "procedure": "Series-3: Thirteen pigs had autologous nucleus pulposus placed onto their sacrococcygeal cauda equina similar to series-2. Five pigs (bodyweight 25 kg) received Remicade^R (infliximab) 100 mg i.v. preoperatively, and 8 pigs received EnbrelR (etanercept) 12.5 mg s.c. preoperatively and additionally 12.5 mg s.c. three days after the operation. Seven days after the nucleus pulposus-application the nerve root conduction velocity was determined over the application zone by local electrical stimulation according to series-2. Five pigs (bodyweight 25 kg) received the human/murine monoclonal antibody Remicade^R (infliximab, […]) 100 mg i.v. preoperatively, and 8 pigs received Enbrel^R (etanercept, […]) 12.5 mg s.c. preoperatively and additionally 12.5 mg s.c. three days after the operation. Seven days after the nucleus pulposus-application the nerve root conduction velocity was determined over the application zone by local electrical stimulation according to series-2. […] No non-treated animals were included in the series-3 due to the pre-existing knowledge of nerve conduction velocity after seven days of either nucleus pulposus or fat (control) application. The statistical difference between the groups, infliximab, and etanercept, nucleus pulposus without treatment (positive control from previous data) and application of retroperitoneal fat (negative control from previous data) was assessed by using ANOVA and Fisher's PLSD at 5%."}}}
{"compound": "N=C(N)NN", "note": "[Aminoguanidine]", "values": [{"measurement": "inhibition of release of nitrogen oxide (NO) at nerve root injuries (in words)", "setting": "[1]", "value": "inhibit the release of nitrogen oxide (NO)"}]}
{"compound": "C[C@H]1c2cccc(O)c2C(=O)C2=C(O)[C@]3(O)C(=O)C(C(N)=O)=C(O)[C@@H](N(C)C)[C@@H]3[C@@H](O)[C@@H]21", "note": "[Doxycycline, doxycycline]", "values": [{"measurement": "NCV (m/s ± SD)", "setting": "[2]", "value": "76 ± 9", "unit": "m/s"}]}
{"compound": "COc1ccc2c(c1)c(CC(=O)O)c(C)n2C(=O)c1ccc(Cl)cc1", "note": "[indomethacin]", "values": [{"measurement": "block of nucleus pulposus-related effects (in words)", "setting": "[3]", "value": "slightly less efficiently"}]}
{"compound": "CCN(CC)CC(=O)Nc1c(C)cccc1C", "note": "[lidocaine]", "values": [{"measurement": "block of nucleus pulposus-related effects (in words)", "setting": "[3]", "value": "slightly less efficiently"}]}
{"compound": "cyclosporin A", "values": [{"measurement": "block of nucleus pulposus-related effects (in words)", "setting": "[3]", "value": "blocked efficiently"}]}
{"compound": "etanercept [Embrel^R]", "values": [{"measurement": "NCV (m/s ± SD)", "setting": "[4]", "value": "78 ± 14", "unit": "m/s"}, {"measurement": "block of nucleus pulposus induced nerve injury (in words)", "setting": "[4]", "value": "blocked the nucleus pulposus induced nerve injury efficiently"}]}
{"compound": "infliximab [Remicade^R]", "values": [{"measurement": "NCV (m/s ± SD)", "setting": "[4]", "value": "79 ± 15", "unit": "m/s"}, {"measurement": "block of nucleus pulposus induced nerve injury (in words)", "setting": "[4]", "value": "blocked the nucleus pulposus induced nerve injury efficiently"}]}
